Assay results from patent US9738634B2, “Heterocyclic amide compound and herbicide” (SYNGENTA PARTICIPATIONS AG, priority 2013, dated 2017).

Tests used:
Assay type in all cases: in vivo
black-grass = experiment: Test Example 3: weedkilling efficacy through soil treatment; H: black-grass; conditions: soil treatment, treatment dosage 320 g/ha
Outline: (§1)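 Crop and weed responses were judged three weeks after a uniform surface spray of the water-diluted emulsion at the given g/ha rate. Seeds sat beneath about 1.5 cm of sterilized diluvial soil, and boxes stood in a greenhouse at 25 to 30° C.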

oval-leafed pondweed [1] = experiment: Test Example 2: weedkilling efficacy, growth period weed treatment in the submerged state; C: oval-leafed pondweed; conditions: treatment dosage 320 g/ha
Outline: (§2)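 Barnyard grass, bulrush and oval-leafed pondweed sown in alluvial soil under 4 cm flooding, greenhouse 25 to 30° C. At 1-2 leaf stage, water-diluted emulsion applied to the water surface at stated g/ha dosages; effects scored 3 weeks later.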

birds-eye speedwell = experiment: Test Example 3: weedkilling efficacy through soil treatment; p: birds-eye speedwell; conditions: soil treatment, treatment dosage 320 g/ha
Outline: as §1

crabgrass = experiment: Test Example 3: weedkilling efficacy through soil treatment; D: crabgrass; conditions: soil treatment, treatment dosage 320 g/ha
Outline: as §1

transplanted rice = experiment: Test Example 1: preemergent weed treatment in the submerged state, effect on crop; a: transplanted rice; conditions: treatment dosage 320 g/ha
Outline: (§3)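 Visual scores against set criteria were taken 3 weeks after treatment. Compounds, as diluted emulsions at specified g/ha, went onto the water surface of 4 cm-flooded alluvial soil pots on the day weeds were sown and 2.5-leaf rice was transplanted; greenhouse held 25–30 °C.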

redroot pigweed = experiment: Test Example 3: weedkilling efficacy through soil treatment; L: redroot pigweed; conditions: soil treatment, treatment dosage 320 g/ha
Outline: as §1

corn = experiment: Test Example 3: soil treatment, effect on crop; c: corn; conditions: soil treatment, treatment dosage 320 g/ha
Outline: as §1

barnyard grass [2] = experiment: Test Example 3: weedkilling efficacy through soil treatment; F: barnyard grass; conditions: soil treatment, treatment dosage 320 g/ha
Outline: as §1

directly sown rice = experiment: Test Example 3: soil treatment, effect on crop; b: directly sown rice; conditions: soil treatment, treatment dosage 320 g/ha
Outline: as §1

beet = experiment: Test Example 3: soil treatment, effect on crop; f: beet; conditions: soil treatment, treatment dosage 320 g/ha
Outline: as §1

rapeseed = experiment: Test Example 3: soil treatment, effect on crop; g: rapeseed; conditions: soil treatment, treatment dosage 320 g/ha
Outline: as §1

wheat = experiment: Test Example 3: soil treatment, effect on crop; e: wheat; conditions: soil treatment, treatment dosage 320 g/ha
Outline: as §1

chickweed = experiment: Test Example 3: weedkilling efficacy through soil treatment; N: chickweed; conditions: soil treatment, treatment dosage 320 g/ha
Outline: as §1

common wind-grass = experiment: Test Example 3: weedkilling efficacy through soil treatment; J: common wind-grass; conditions: soil treatment, treatment dosage 320 g/ha
Outline: as §1

catchweed = experiment: Test Example 3: weedkilling efficacy through soil treatment; O: catchweed; conditions: soil treatment, treatment dosage 320 g/ha
Outline: as §1

green foxtail = experiment: Test Example 3: weedkilling efficacy through soil treatment; E: green foxtail; conditions: soil treatment, treatment dosage 320 g/ha
Outline: as §1

oval-leafed pondweed [3] = experiment: Test Example 1: weedkilling efficacy, preemergent weed treatment in the submerged state; C: oval-leafed pondweed; conditions: treatment dosage 320 g/ha
Outline: as §3

bulrush [4] = experiment: Test Example 1: weedkilling efficacy, preemergent weed treatment in the submerged state; B: bulrush; conditions: treatment dosage 320 g/ha
Outline: as §3

soybean = experiment: Test Example 3: soil treatment, effect on crop; d: soybean; conditions: soil treatment, treatment dosage 320 g/ha
Outline: as §1

Italian ryegrass = experiment: Test Example 3: weedkilling efficacy through soil treatment; I: Italian ryegrass; conditions: soil treatment, treatment dosage 320 g/ha
Outline: as §1

fig-leafed goosefoot = experiment: Test Example 3: weedkilling efficacy through soil treatment; M: fig-leafed goosefoot; conditions: soil treatment, treatment dosage 320 g/ha
Outline: as §1

wild oat = experiment: Test Example 3: weedkilling efficacy through soil treatment; G: wild oat; conditions: soil treatment, treatment dosage 320 g/ha
Outline: as §1

Indian mallow = experiment: Test Example 3: weedkilling efficacy through soil treatment; K: Indian mallow; conditions: soil treatment, treatment dosage 320 g/ha
Outline: as §1

bulrush [5] = experiment: Test Example 2: weedkilling efficacy, growth period weed treatment in the submerged state; B: bulrush; conditions: treatment dosage 320 g/ha
Outline: as §2

barnyard grass [6] = experiment: Test Example 1: weedkilling efficacy, preemergent weed treatment in the submerged state; A: barnyard grass; conditions: treatment dosage 320 g/ha
Outline: as §3

barnyard grass [7] = experiment: Test Example 2: weedkilling efficacy, growth period weed treatment in the submerged state; A: barnyard grass; conditions: treatment dosage 320 g/ha
Outline: as §2

SMILES | H: black-grass, weedkilling efficacy grade (black-grass) | C (oval-leafed pondweed) weedkilling efficacy grade (oval-leafed pondweed [1]) | P: birds-eye speedwell, weedkilling efficacy grade (birds-eye speedwell) | D: crabgrass, weedkilling efficacy grade (crabgrass) | a: transplanted rice, effect on crop grade (transplanted rice) | L: redroot pigweed, weedkilling efficacy grade (redroot pigweed) | c: corn, effect on crop grade (corn) | F: barnyard grass, weedkilling efficacy grade (barnyard grass [2]) | b: directly sown rice, effect on crop grade (directly sown rice) | f: beet, effect on crop grade (beet) | g: rapeseed, effect on crop grade (rapeseed) | e: wheat, effect on crop grade (wheat) | N: chickweed, weedkilling efficacy grade (chickweed) | J: common wind-grass, weedkilling efficacy grade (common wind-grass) | O: catchweed, weedkilling efficacy grade (catchweed) | E: green foxtail, weedkilling efficacy grade (green foxtail) | C: oval-leafed pondweed, weed kill grade (oval-leafed pondweed [3]) | B: bulrush, weed kill grade (bulrush [4]) | d: soybean, effect on crop grade (soybean) | I: Italian ryegrass, weedkilling efficacy grade (Italian ryegrass) | also measured
CC(C)(C(=O)Nc1cc(Oc2ccccc2)cc(Cl)n1)N1COCN(c2ccccc2)C1=O [A-2-36] | 5 (weed kill ratio 90% or more, (practically complete withering)) | 5 (weed kill ratio 90% or more, (practically complete withering)) | 4 (weed kill ratio 70% or more, less than 90%) | 5 (weed kill ratio 90% or more, (practically complete withering)) | 2 (weed kill ratio 20% or more, less than 40%) | 3 (weed kill ratio 40% or more, less than 70%) | 0 (weed kill ratio 5% or less (practically no effect)) | 4 (weed kill ratio 70% or more, less than 90%) | 0 (weed kill ratio 5% or less (practically no effect)) | 2 (weed kill ratio 20% or more, less than 40%) | 1 (weed kill ratio 5% or more, less than 20%) | 0 (weed kill ratio 5% or less (practically no effect)) | 3 (weed kill ratio 40% or more, less than 70%) | 5 (weed kill ratio 90% or more, (practically complete withering)) | 0 (weed kill ratio 5% or less (practically no effect)) | 5 (weed kill ratio 90% or more, (practically complete withering)) | 5 (weed kill ratio 90% or more, (practically complete withering)) | 5 (weed kill ratio 90% or more, (practically complete withering)) | 0 (weed kill ratio 5% or less (practically no effect)) | 5 (weed kill ratio 90% or more, (practically complete withering)) | M: fig-leafed goosefoot, weedkilling efficacy grade (fig-leafed goosefoot): 3 (weed kill ratio 40% or more, less than 70%); G: wild oat, weedkilling efficacy grade (wild oat): 0 (weed kill ratio 5% or less (practically no effect)); K: Indian mallow, weedkilling efficacy grade (Indian mallow): 0 (weed kill ratio 5% or less (practically no effect)); B (bulrush) weedkilling efficacy grade (bulrush [5]): 3 (weed kill ratio 40% or more, less than 70%); A: barnyard grass, weed kill grade (barnyard grass [6]): 5 (weed kill ratio 90% or more, (practically complete withering)); A (barnyard grass) weedkilling efficacy grade (barnyard grass [7]): 5 (weed kill ratio 90% or more, (practically complete withering))
CSc1nnc(NC(=O)C(C)(C)N2COCN(c3ccccc3)C2=O)s1 [A-1-15] | 1 (weed kill ratio 5% or more, less than 20%) | 5 (weed kill ratio 90% or more, (practically complete withering)) | 3 (weed kill ratio 40% or more, less than 70%) | 0 (weed kill ratio 5% or less (practically no effect)) | 0 (weed kill ratio 5% or less (practically no effect)) | 0 (weed kill ratio 5% or less (practically no effect)) | 0 (weed kill ratio 5% or less (practically no effect)) | 0 (weed kill ratio 5% or less (practically no effect)) | 0 (weed kill ratio 5% or less (practically no effect)) | 0 (weed kill ratio 5% or less (practically no effect)) | 1 (weed kill ratio 5% or more, less than 20%) | 0 (weed kill ratio 5% or less (practically no effect)) | 0 (weed kill ratio 5% or less (practically no effect)) | 5 (weed kill ratio 90% or more, (practically complete withering)) | 0 (weed kill ratio 5% or less (practically no effect)) | 0 (weed kill ratio 5% or less (practically no effect)) | 5 (weed kill ratio 90% or more, (practically complete withering)) | 5 (weed kill ratio 90% or more, (practically complete withering)) | 0 (weed kill ratio 5% or less (practically no effect)) | 4 (weed kill ratio 70% or more, less than 90%) | M: fig-leafed goosefoot, weedkilling efficacy grade (fig-leafed goosefoot): 0 (weed kill ratio 5% or less (practically no effect)); G: wild oat, weedkilling efficacy grade (wild oat): 0 (weed kill ratio 5% or less (practically no effect)); K: Indian mallow, weedkilling efficacy grade (Indian mallow): 0 (weed kill ratio 5% or less (practically no effect)); B (bulrush) weedkilling efficacy grade (bulrush [5]): 5 (weed kill ratio 90% or more, (practically complete withering)); A: barnyard grass, weed kill grade (barnyard grass [6]): 4 (weed kill ratio 70% or more, less than 90%); A (barnyard grass) weedkilling efficacy grade (barnyard grass [7]): 3 (weed kill ratio 40% or more, less than 70%)
CC(C)(C(=O)Nc1ccc(F)cn1)N1COCN(c2ccccc2)C1=O [A-2-04] | 2 (weed kill ratio 20% or more, less than 40%) | 4 (weed kill ratio 70% or more, less than 90%) | 0 (weed kill ratio 5% or less (practically no effect)) | 3 (weed kill ratio 40% or more, less than 70%) | 0 (weed kill ratio 5% or less (practically no effect)) | 0 (weed kill ratio 5% or less (practically no effect)) | 0 (weed kill ratio 5% or less (practically no effect)) | 3 (weed kill ratio 40% or more, less than 70%) | 0 (weed kill ratio 5% or less (practically no effect)) | 0 (weed kill ratio 5% or less (practically no effect)) | 0 (weed kill ratio 5% or less (practically no effect)) | 0 (weed kill ratio 5% or less (practically no effect)) | 2 (weed kill ratio 20% or more, less than 40%) | 4 (weed kill ratio 70% or more, less than 90%) | 0 (weed kill ratio 5% or less (practically no effect)) | 3 (weed kill ratio 40% or more, less than 70%) | 4 (weed kill ratio 70% or more, less than 90%) | 5 (weed kill ratio 90% or more, (practically complete withering)) | 0 (weed kill ratio 5% or less (practically no effect)) | 3 (weed kill ratio 40% or more, less than 70%) | M: fig-leafed goosefoot, weedkilling efficacy grade (fig-leafed goosefoot): 0 (weed kill ratio 5% or less (practically no effect)); G: wild oat, weedkilling efficacy grade (wild oat): 0 (weed kill ratio 5% or less (practically no effect)); K: Indian mallow, weedkilling efficacy grade (Indian mallow): 0 (weed kill ratio 5% or less (practically no effect)); B (bulrush) weedkilling efficacy grade (bulrush [5]): 5 (weed kill ratio 90% or more, (practically complete withering)); A: barnyard grass, weed kill grade (barnyard grass [6]): 4 (weed kill ratio 70% or more, less than 90%); A (barnyard grass) weedkilling efficacy grade (barnyard grass [7]): 5 (weed kill ratio 90% or more, (practically complete withering))
